One data set in a line: pH measurement. The data set is classed as physicochemical. As to conditions: sample plate: 2 mL sample + 18 mL Sabourand agar medium.
The subject of a further data set is Trichophyton rubrum. Put plainly: Agar dilution method, colony growth on sample plate. As to conditions: T. rubrum, 28° C., 12 days; for Diameter of the colony: 2 mL sample + 18 mL Sabourand agar medium, 5 mm colony disk; for Antifungal activity: 100-[(x-5)/(y-5)x100] vs standard plate, 2 mL sample + 18 mL medium. The data set is classed as cell-based. On the technique in general: Agar dilution tests growth on a series of plates holding different concentrations.

Data set [1] concerns Trichophyton mentagrophytes. The data set is described as above. The data set is classed as cell-based. Conditions: T. mentagrophytes, 28° C., 12 days; for Diameter of the colony: 2 mL sample + 18 mL Sabourand agar medium, 5 mm colony disk; for Antifungal activity: 100-[(x-5)/(y-5)x100] vs standard plate, 2 mL sample + 18 mL medium.
Data set [2] deals with enterohemorrhagic E. coli O-157. As to conditions: Japanese Patent Laid-Open No. 300284/2000; cited from earlier work.
A further data set relates to Rosellinia necatrix. The data set is described as follows: Agar dilution method on potato dextrose agar. The data set is classed as cell-based. Conditions: 2 mL sample + 18 mL potato dextrose agar.
The subject of another data set is Helicobasidium mompa. Put plainly: Agar dilution method on potato dextrose agar. The class given is cell-based. As to conditions: 2 mL sample + 18 mL potato dextrose agar.
The next data set relates to Fusarium oxysporum. Put plainly: Agar dilution method on potato dextrose agar. The class given is cell-based. As to conditions: 2 mL sample + 18 mL potato dextrose agar.
For a further data set, the system named is Pythium graminicola. The data set is described as follows: Agar dilution method on potato dextrose agar. The data set is classed as cell-based. Conditions: 2 mL sample + 18 mL potato dextrose agar.

Each structure is given as a SMILES string.

Turning to `CC(O)C(=O)O` (stereo not shown) [Comp. Ex. 7, lactic acid], the “PH of the Medium” value in “pH measurement” was determined as 3.46. Also, the entries for the “Diameter of the colony” value (in the data set with Trichophyton rubrum; in data set [1]) were 18.0 ± 5.0 mm and 17.7 ± 1.4 mm, respectively. Besides, the Antifungal activity with Trichophyton rubrum is reported as 66%; in data set [1], 74%.
As for `CC(=O)O` [Comp. Ex. 8, acetic acid], the “PH of the Medium” value in the data set “pH measurement” is given as 4.12. The “Diameter of the colony” value in the data set on Trichophyton rubrum was 5.4 ± 0.3 mm; in data set [1], 5.7 ± 0.3 mm. Moreover, the Antifungal activity (in the data set on Trichophyton rubrum; in data set [1]) was 99% in each case.
Consider `O=C(O)C(=O)O` [Comp. Ex. 5, oxalic acid], for which the “PH of the Medium” value in “pH measurement” is 4.30. For the same molecule, in the data set on Trichophyton rubrum, the “Diameter of the colony” value is given as 36.5 ± 1.1 mm and the Antifungal activity is given as 18%. In addition, in data set [1], the “Diameter of the colony” value amounted to 17.6 ± 0.1 mm and the Antifungal activity was found to be 74%.
With `O=C(O)C(O)Cc1ccccc1` (stereo not shown) [phenyllactic acid], in data set [2], the antibacterial activity result is given as “strong antibacterial activity”.
In the case of `O=C([O-])c1ccccc1C(=O)O.[K+]` [Comparative Example 12, potassium hydrogen phthalate], the “Diameter of the colony” value with Rosellinia necatrix ([…]) is on record as 70.3 ± 0.0 mm; with Helicobasidium mompa ([…]) it was 8.1 ± 0.7 mm; with Fusarium oxysporum ([…]) it was 54.1 ± 4.1 mm; in the data set on Pythium graminicola ([…]) it was 13.1 ± 0.6 mm. Moreover, the Antifungal activity came out at 5% in the data set on Rosellinia necatrix (vs standard plate), 95% in the data set with Helicobasidium mompa (vs standard plate), 5% in the data set with Fusarium oxysporum (vs standard plate) and 88% with Pythium graminicola (vs standard plate).
With `O=C(O)CC(=O)O` [Comp. Ex. 6, malonic acid], in “pH measurement”, the “PH of the Medium” value is 2.91. In addition, in the data set on Trichophyton rubrum, the “Diameter of the colony” value came out at 5.5 ± 0.0 mm and the Antifungal activity was 99%. Besides, in data set [1], the “Diameter of the colony” value stood at 5.5 ± 0.0 mm and the Antifungal activity is 99%.
Take `O=C([O-])c1ccccc1C(=O)O.[K+]` [Comp. Ex. 2, potassium hydrogen phthalate]: in the data set with Trichophyton rubrum, the “Diameter of the colony” value turned out to be 21.0 ± 1.5 mm and the Antifungal activity is listed as 58%. Moreover, in data set [1], the “Diameter of the colony” value came to 51.1 ± 2.4 mm and the Antifungal activity is 6%.
On the same counts, the results for `O=C(O)CC(O)(CC(=O)O)C(=O)O` [Comp. Ex. 3, citric acid] are 26.5 ± 1.5 mm, 44%, 14.8 ± 0.7 mm and 80%.
